Source: ChEMBL document CHEMBL4507311, “Data for DCP probe A-1155463” (2021)

What was measured:
[1] = target: Activin receptor type-2A (Homo sapiens) (UniProt P27037); details: Compound concentration 1000.0 nM
[2] = target: RAC-alpha serine/threonine-protein kinase (Homo sapiens) (UniProt P31749); details: Compound concentration 1000.0 nM
[3] = target: Serine/threonine-protein kinase B-raf (Homo sapiens) (UniProt P15056); details: Compound concentration 1000.0 nM
[4] = target: Protein-tyrosine kinase 6 (Homo sapiens) (UniProt Q13882); details: Compound concentration 1000.0 nM
[5] = target: Calcium/calmodulin-dependent protein kinase type II subunit gamma (Homo sapiens) (UniProt Q13555); details: Compound concentration 1000.0 nM
[6] = target: Cyclin-dependent kinase-like 1 (Homo sapiens) (UniProt Q00532); details: Compound concentration 1000.0 nM
Sequence of Cyclin-dependent kinase-like 1 (Homo sapiens) (Q00532 whole entry): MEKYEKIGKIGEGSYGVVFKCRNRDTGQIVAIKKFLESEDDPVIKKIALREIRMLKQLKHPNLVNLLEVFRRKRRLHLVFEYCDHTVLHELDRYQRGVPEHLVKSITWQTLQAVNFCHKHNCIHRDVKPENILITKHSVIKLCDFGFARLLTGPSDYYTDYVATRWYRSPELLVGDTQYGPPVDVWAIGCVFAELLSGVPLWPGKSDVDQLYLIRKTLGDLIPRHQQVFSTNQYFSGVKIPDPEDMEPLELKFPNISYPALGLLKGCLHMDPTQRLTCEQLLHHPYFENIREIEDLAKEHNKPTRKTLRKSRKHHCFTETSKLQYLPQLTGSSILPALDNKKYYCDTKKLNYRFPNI

[7] = target: Dual specificity protein kinase CLK2 (Homo sapiens) (UniProt P49760); details: Compound concentration 1000.0 nM
[8] = target: Casein kinase II subunit alpha (Homo sapiens) (UniProt P68400); details: Compound concentration 1000.0 nM
[9] = target: Death-associated protein kinase 2 (Homo sapiens) (UniProt Q9UIK4); details: Compound concentration 1000.0 nM
[10] = target: Discoidin domain-containing receptor 2 (Homo sapiens) (UniProt Q16832); details: Compound concentration 1000.0 nM
[11] = target: Serine/threonine-protein kinase 17B (Homo sapiens) (UniProt O94768); details: Compound concentration 1000.0 nM
[12] = target: Ephrin type-B receptor 4 (Homo sapiens) (UniProt P54760); details: Compound concentration 1000.0 nM
[13] = target: Mitogen-activated protein kinase 6 (Homo sapiens) (UniProt Q16659); details: Compound concentration 1000.0 nM
Sequence of Mitogen-activated protein kinase 6 (Homo sapiens) (Q16659 whole entry): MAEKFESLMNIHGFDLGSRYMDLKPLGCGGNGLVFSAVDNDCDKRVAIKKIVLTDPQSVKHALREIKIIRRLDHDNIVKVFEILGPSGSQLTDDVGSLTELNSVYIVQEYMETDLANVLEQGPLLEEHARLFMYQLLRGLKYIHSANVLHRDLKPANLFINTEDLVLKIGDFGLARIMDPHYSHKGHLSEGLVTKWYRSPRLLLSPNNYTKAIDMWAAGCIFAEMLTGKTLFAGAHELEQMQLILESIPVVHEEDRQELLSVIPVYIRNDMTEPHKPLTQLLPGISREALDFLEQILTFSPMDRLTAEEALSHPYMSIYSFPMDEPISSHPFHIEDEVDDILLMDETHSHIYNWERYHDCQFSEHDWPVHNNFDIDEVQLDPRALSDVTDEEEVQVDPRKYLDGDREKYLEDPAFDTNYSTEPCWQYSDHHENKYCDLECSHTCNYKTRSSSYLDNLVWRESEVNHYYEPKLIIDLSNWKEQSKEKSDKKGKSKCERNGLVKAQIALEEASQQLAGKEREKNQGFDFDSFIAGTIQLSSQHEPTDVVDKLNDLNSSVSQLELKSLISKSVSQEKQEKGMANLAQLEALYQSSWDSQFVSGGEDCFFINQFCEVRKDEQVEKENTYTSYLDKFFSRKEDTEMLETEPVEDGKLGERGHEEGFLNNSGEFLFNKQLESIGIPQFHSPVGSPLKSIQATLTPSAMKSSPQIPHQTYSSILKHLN

[14] = target: Mitogen-activated protein kinase 4 (Homo sapiens) (UniProt P31152); details: Compound concentration 1000.0 nM
Sequence of Mitogen-activated protein kinase 4 (Homo sapiens) (P31152 whole entry): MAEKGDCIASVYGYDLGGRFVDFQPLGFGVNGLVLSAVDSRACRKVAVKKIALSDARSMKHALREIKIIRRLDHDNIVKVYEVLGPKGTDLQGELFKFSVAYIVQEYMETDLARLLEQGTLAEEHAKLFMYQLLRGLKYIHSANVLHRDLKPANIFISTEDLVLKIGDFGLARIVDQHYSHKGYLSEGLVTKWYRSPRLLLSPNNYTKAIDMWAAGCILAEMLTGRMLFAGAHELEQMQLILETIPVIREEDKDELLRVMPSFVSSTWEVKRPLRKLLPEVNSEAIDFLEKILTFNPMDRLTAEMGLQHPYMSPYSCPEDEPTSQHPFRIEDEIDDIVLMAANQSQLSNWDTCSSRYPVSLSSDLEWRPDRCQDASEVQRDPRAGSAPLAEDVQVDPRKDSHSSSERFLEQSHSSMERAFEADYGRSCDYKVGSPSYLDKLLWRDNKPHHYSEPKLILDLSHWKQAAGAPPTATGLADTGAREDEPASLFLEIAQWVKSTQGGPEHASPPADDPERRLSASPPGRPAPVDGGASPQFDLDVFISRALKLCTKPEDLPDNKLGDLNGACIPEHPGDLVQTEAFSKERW

[15] = target: Receptor-type tyrosine-protein kinase FLT3 (Homo sapiens) (UniProt P36888); details: Compound concentration 1000.0 nM
Sequence of Receptor-type tyrosine-protein kinase FLT3 (Homo sapiens) (P36888 whole entry): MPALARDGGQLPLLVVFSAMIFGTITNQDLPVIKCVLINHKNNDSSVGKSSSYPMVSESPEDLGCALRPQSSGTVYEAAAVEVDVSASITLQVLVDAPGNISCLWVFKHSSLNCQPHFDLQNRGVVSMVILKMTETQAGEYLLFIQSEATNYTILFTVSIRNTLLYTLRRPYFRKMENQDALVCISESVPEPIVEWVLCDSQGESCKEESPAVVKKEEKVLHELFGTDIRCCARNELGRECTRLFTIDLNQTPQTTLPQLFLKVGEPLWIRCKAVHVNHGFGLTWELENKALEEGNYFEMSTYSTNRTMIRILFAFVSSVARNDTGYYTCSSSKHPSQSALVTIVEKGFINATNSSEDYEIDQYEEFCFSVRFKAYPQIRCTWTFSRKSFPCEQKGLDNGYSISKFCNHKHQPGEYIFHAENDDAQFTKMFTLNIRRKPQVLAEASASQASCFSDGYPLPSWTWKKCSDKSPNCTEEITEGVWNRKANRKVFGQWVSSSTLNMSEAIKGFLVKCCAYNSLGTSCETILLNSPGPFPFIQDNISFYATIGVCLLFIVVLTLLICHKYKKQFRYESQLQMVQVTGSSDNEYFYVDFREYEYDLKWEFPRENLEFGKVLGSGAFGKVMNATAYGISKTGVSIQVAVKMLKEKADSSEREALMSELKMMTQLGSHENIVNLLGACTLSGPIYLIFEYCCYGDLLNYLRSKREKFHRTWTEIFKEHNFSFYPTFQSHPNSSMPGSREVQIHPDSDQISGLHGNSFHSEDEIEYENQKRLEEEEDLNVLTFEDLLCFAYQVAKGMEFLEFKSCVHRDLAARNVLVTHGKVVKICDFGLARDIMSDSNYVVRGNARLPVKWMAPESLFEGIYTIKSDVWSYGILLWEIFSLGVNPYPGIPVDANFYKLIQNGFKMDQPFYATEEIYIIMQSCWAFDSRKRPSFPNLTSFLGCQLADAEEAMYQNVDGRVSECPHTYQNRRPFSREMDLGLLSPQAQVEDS

[16] = test system: Receptor-type tyrosine-protein kinase FLT3 (Homo sapiens), P36888 [UNDEFINED MUTATION]; details: Compound concentration 1000.0 nM
Sequence of Receptor-type tyrosine-protein kinase FLT3 (Homo sapiens), P36888 [UNDEFINED MUTATION] (P36888 whole entry, looked up, stated change not applied): as the sequence (P36888 whole entry) above

[17] = test system: Receptor-type tyrosine-protein kinase FLT3 (Homo sapiens), P36888 [UNDEFINED MUTATION]; details: Compound concentration 1000.0 nM; remark: listed apart in the source
[18] = target: Insulin-like growth factor 1 receptor (Homo sapiens) (UniProt P08069); details: Compound concentration 1000.0 nM
Sequence of Insulin-like growth factor 1 receptor (Homo sapiens) (P08069 31-736 limits assumed): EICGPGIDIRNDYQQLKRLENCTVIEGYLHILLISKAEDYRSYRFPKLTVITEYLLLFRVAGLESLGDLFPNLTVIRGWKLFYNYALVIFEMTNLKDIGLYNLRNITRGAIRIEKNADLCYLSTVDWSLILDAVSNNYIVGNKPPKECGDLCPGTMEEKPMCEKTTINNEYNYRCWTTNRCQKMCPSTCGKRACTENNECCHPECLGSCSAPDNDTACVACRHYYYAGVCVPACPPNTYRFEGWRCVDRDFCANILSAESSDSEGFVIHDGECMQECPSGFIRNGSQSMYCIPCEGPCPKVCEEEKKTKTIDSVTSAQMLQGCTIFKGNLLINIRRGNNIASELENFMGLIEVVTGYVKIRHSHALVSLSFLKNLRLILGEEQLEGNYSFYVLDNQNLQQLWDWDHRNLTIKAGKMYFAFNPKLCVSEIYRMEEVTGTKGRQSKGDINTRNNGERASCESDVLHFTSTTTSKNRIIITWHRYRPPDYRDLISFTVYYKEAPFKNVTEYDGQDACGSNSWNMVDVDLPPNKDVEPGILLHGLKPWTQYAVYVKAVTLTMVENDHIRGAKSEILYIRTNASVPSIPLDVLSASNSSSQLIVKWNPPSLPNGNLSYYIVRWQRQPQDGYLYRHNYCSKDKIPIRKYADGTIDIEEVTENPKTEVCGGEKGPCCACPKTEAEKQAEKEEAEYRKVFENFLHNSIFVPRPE
Sequence of Insulin-like growth factor 1 receptor (Homo sapiens) (P08069 741-1367 limits assumed): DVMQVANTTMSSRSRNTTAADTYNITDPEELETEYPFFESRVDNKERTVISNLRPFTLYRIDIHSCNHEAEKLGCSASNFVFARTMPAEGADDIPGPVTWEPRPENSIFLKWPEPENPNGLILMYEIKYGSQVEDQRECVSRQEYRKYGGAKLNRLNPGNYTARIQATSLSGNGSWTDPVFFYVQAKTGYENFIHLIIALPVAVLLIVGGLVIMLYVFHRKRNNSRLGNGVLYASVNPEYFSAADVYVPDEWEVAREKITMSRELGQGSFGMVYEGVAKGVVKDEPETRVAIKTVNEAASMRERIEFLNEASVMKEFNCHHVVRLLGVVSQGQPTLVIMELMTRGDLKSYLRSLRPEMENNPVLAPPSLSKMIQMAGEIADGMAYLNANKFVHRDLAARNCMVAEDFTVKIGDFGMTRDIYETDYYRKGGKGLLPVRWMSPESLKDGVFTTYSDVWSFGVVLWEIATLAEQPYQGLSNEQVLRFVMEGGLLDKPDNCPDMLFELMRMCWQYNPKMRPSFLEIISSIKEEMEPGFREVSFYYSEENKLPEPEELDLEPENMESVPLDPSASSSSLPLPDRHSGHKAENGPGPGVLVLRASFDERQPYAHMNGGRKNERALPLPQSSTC

[19] = target: Insulin receptor (Homo sapiens) (UniProt P06213); details: Compound concentration 1000.0 nM
[20] = target: LIM domain kinase 1 (Homo sapiens) (UniProt P53667); details: Compound concentration 1000.0 nM
[21] = target: Mitogen-activated protein kinase kinase kinase 4 (Homo sapiens) (UniProt Q9Y6R4); details: Compound concentration 1000.0 nM
[22] = target: MAP/microtubule affinity-regulating kinase 3 (Homo sapiens) (UniProt P27448); details: Compound concentration 1000.0 nM
[23] = target: Microtubule-associated serine/threonine-protein kinase 1 (Homo sapiens) (UniProt Q9Y2H9); details: Compound concentration 1000.0 nM
[24] = target: Dual specificity mitogen-activated protein kinase kinase 2 (Homo sapiens) (UniProt P36507); details: Compound concentration 1000.0 nM
[25] = target: Misshapen-like kinase 1 (Homo sapiens) (UniProt Q8N4C8); details: Compound concentration 1000.0 nM
[26] = target: Serine/threonine-protein kinase Nek9 (Homo sapiens) (UniProt Q8TD19); details: Compound concentration 1000.0 nM
[27] = target: Mitogen-activated protein kinase 12 (Homo sapiens) (UniProt P53778); details: Compound concentration 1000.0 nM
[28] = target: Calcium-dependent protein kinase 1 (Plasmodium falciparum) (UniProt P62344); details: Compound concentration 1000.0 nM
[29] = target: Phosphatidylinositol 4,5-bisphosphate 3-kinase catalytic subunit beta isoform (Homo sapiens) (UniProt P42338); details: Compound concentration 1000.0 nM
[30] = target: Serine/threonine-protein kinase D3 (Homo sapiens) (UniProt O94806); details: Compound concentration 1000.0 nM
[31] = target: Dual serine/threonine and tyrosine protein kinase (Homo sapiens) (UniProt Q6XUX3); details: Compound concentration 1000.0 nM
[32] = target: Ribosomal protein S6 kinase alpha-3 (Homo sapiens) (UniProt P51812); details: Compound concentration 1000.0 nM
[33] = target: SRSF protein kinase 1 (Homo sapiens) (UniProt Q96SB4); details: Compound concentration 1000.0 nM
[34] = target: Serine/threonine-protein kinase TAO1 (Homo sapiens) (UniProt Q7L7X3); details: Compound concentration 1000.0 nM
[35] = target: Dual specificity testis-specific protein kinase 1 (Homo sapiens) (UniProt Q15569); details: Compound concentration 1000.0 nM
Sequence of Dual specificity testis-specific protein kinase 1 (Homo sapiens) (Q15569 whole entry, looked up): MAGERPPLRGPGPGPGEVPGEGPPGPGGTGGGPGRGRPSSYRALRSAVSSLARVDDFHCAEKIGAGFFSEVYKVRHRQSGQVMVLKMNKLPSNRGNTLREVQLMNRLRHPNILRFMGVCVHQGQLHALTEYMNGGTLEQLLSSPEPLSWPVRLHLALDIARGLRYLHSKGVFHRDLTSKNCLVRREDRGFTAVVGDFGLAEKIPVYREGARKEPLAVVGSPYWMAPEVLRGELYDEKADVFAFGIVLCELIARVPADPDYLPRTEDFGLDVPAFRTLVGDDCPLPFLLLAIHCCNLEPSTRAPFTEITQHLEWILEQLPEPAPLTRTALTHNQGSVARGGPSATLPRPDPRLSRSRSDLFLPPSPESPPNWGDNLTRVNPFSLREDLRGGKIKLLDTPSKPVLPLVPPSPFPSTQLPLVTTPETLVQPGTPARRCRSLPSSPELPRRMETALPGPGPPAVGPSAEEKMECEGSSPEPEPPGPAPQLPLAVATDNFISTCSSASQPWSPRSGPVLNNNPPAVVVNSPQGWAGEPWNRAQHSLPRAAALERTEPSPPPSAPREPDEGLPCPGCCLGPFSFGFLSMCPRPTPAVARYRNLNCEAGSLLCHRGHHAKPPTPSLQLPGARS

[36] = target: Serine/threonine-protein kinase WNK4 (Homo sapiens) (UniProt Q96J92); details: Compound concentration 1000.0 nM
[37] = target: Tyrosine-protein kinase ZAP-70 (Homo sapiens) (UniProt P43403); details: Compound concentration 1000.0 nM
[38] = target: D(1A) dopamine receptor (Homo sapiens) (UniProt P21728); details: Compound concentration 10.0 uM
[39] = target: D(3) dopamine receptor (Homo sapiens) (UniProt P35462); details: Compound concentration 10.0 uM
[40] = target: GABA-A receptor; anion channel (Rattus norvegicus) (UniProt O09028+P15431+P18506+P18508+P19969+P20236+P23574+P23576+P28471+P28473+P30191+P62813+P63079+P63138+Q91ZM7+Q9ES14); details: Compound concentration 10.0 uM
[41] = target: Beta-2 adrenergic receptor (Homo sapiens) (UniProt P07550); details: Compound concentration 10.0 uM
[42] = target: Beta-3 adrenergic receptor (Homo sapiens) (UniProt P13945); details: Compound concentration 10.0 uM
Rattus norvegicus = organism: Rattus norvegicus; details: Compound concentration 10.0 uM
[43] = target: Sigma non-opioid intracellular receptor 1 (Homo sapiens, UniProt Q99720); details: Compound concentration 10.0 uM
Sequence of Sigma non-opioid intracellular receptor 1 (Q99720 whole entry): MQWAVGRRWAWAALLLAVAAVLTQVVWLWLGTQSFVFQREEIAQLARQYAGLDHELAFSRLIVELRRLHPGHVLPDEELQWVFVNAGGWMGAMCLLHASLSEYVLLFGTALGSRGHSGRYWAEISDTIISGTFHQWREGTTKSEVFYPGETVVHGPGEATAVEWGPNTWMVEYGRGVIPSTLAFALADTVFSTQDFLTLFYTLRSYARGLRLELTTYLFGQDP

## CN(C)CC#Cc1ccc(OCCCc2sc(N3CCc4cccc(C(=O)Nc5nc6ccccc6s5)c4C3)nc2C(=O)O)c(F)c1 [A-1155463]
[1]
  residual activity: 94%
[2]
  residual activity: 100%
[3]
  residual activity: 100%
[4]
  residual activity: 96%
[5]
  residual activity: 62%
[6]
  residual activity: 100%
[7]
  residual activity: 83%
[8]
  residual activity: 100%
[9]
  residual activity: 90%
[10]
  residual activity: 83%
[11]
  residual activity: 72%
[12]
  residual activity: 100%
[13]
  residual activity: 94%
[14]
  residual activity: 89%
[15]
  residual activity: 80%
[16]
  residual activity: 100%
[17]
  residual activity: 100%
[18]
  residual activity: 98%
[19]
  residual activity: 92%
[20]
  residual activity: 97%
[21]
  residual activity: 100%
[22]
  residual activity: 38%
[23]
  residual activity: 89%
[24]
  residual activity: 100%
[25]
  residual activity: 88%
[26]
  residual activity: 95%
[27]
  residual activity: 89%
[28]
  residual activity: 100%
[29]
  residual activity: 100%
[30]
  residual activity: 93%
[31]
  residual activity: 100%
[32]
  residual activity: 97%
[33]
  residual activity: 100%
[34]
  residual activity: 100%
[35]
  residual activity: 100%
[36]
  residual activity: 81%
[37]
  residual activity: 100%
[38]
  inhibition: 24.6%
[39]
  inhibition: 2.01%
[40]
  inhibition: 11.3%
[41]
  inhibition: 27.1%
[42]
  inhibition: 3.53%
Rattus norvegicus
  inhibition: 61.1%
[43]
  inhibition: 53.3%
